Consider 26 molecules from patent US12319655B2, “RAF kinase inhibitors and methods of use thereof” (Deciphera Pharmaceuticals, LLC, priority 2021, dated 2025).

In one test the test system is Miapaca-2 cells. The test can be described thus: MiaPaca-2 Combination Cell proliferation Assay (1) with cobimetinib. The following applies: MiaPaca-2 cell proliferation, read-out: MiaPaca-2 Combo (1) IC50. In kind it is cell-based. As for the experimental part: MiaPaca-2 Combination Cell proliferation Assay (1)
Miapaca-2 cells (catalog #CRL-1420) are obtained from the American Type Culture Collect (ATCC, Manassas, VA). Briefly, cells were grown in DMEM supplemented with 10% characterized fetal bovine serum (Invitrogen, Carlsbad, CA), 2.5% New Zealand sourced horse serum and 1% Penicillin/Streptomycin/L-Glutamine at 37° C., 5% CO2, and 95% humidity. Cells are expanded until reaching 70-95% confluency at which point they are subcultured or harvested for assay use. A serial dilution of test compound was dispensed into multiple 96-well black clear bottom plates in triplicate. A serial dilution of complete growth medium containing cobimetinib was prepared at twice the final concentration and 100 μL was dispensed across the test compound titration in triplicate. Three thousand cells are added per well in 100 μL complete growth medium in each 96-well plate. Plates are incubated for 67-72 hours at 37° C., 5% CO2, and 95% humidity. At the end of the incubation, 40 μL of a 440 μM solution of resazurin (Sigma, St. Louis, MO) in PBS is added to each well of the plate and plates are incubated for an additional 5-7 hours at 37° C., 5% CO2, and 95% humidity. Plates are read on a Synergy2 or equivalent reader (Biotek, Winooski VT) using an excitation of 540 nm and an emission of 600 nm. Drug synergy was assessed via BLISS analysis in the Combenefit software (Cancer Research UK Cambridge Institute, Cambridge, UK). Data is analyzed using Prism software (Graphpad, San Diego, CA) to calculate IC50 values. Shifts in test compound IC50 values are reported from top-constrained combination therapy curves.

In a further test the test system is WM3629 cells. The test can be described thus: WM3629 Cell Proliferation Assay (1). It is filed as cell-based. As to the method: WM3629 Cell Proliferation Assay (1)
WM3629 cells (#WM3629-01-0001) are obtained from Rockland Immunochemicals Inc (Gilbertsville, PA). Briefly, cells were grown in MCDB 153 medium (Sigma, #M7403, St. Louis, MO) supplemented with 20% Leibovitz's L-15 (ThermoFisher #11415-064, Waltham, MA), 2% heat inactivated fetal bovine serum (ThermoFisher, #A3840001, Waltham, MA), 5 μg/mL Insulin (Bovine Pancreas) (Sigma, #10516, St. Louis, MO), 1.68 mM Calcium Chloride (Sigma, #C-34006, St. Louis, MO) and 1% Penicillin/Streptomycin/L-Glutamine (ThermoFisher #10378016, Waltham, MA) at 37° C., 5% CO2, and 95% humidity. Cells are expanded until reaching 70-95% confluency at which point they are subcultured or harvested for assay use. A serial dilution of test compound is dispensed into a 96-well black clear bottom plate in triplicate. Four thousand five hundred cells are added per well in 200 μL complete growth medium in the 96-well plate. Plates are incubated for 67-72 hours at 37° C., 5% CO2, and 95% humidity. At the end of the incubation, 40 μL of a 440 μM solution of resazurin (Sigma, #199303, St. Louis, MO) in PBS is added to each well of the plate and plates are incubated for an additional 6-7 hours at 37° C., 5% CO2, and 95% humidity. Plates are read on a Synergy2 or equivalent reader (Biotek, Winooski VT) using an excitation of 540 nm and an emission of 600 nm. Data is analyzed using Prism software (GraphPad, San Diego, CA) to calculate IC50 values.

pIC50: −log10 of the molar value.

Regarding `CCOc1cc(-c2cc(NC(=O)c3ccnc(C(F)(F)F)c3)ccc2C)cc(-c2ccnc(NC(=O)C3CC3)c2)n1` [Example 12], the negative-log IC50 (pIC50) in the test on Miapaca-2 cells was 6.30 to 7.00. On the same count and under the same terms, the result for `CC(=O)Nc1cc(-c2cc(-c3cc(NC(=O)c4ccnc(C(F)(F)F)c4)ccc3C)cc(N3CCOCC3)n2)ccn1` [Example 15] reads no less than 7.00; that for `CC(=O)Nc1cc(-c2cc(-c3cc(NC(=O)c4ccnc(C(C)(C)C#N)c4)ccc3C)ccn2)ccn1` [Example 19], no less than 7.00. On to `Cc1ccc(NC(=O)c2ccnc(C(C)(C)F)c2)cc1-c1ccnc(-c2ccnc(NC(=O)C3CC3)c2)n1` [Example 186], for which the pIC50 in the test on WM3629 cells was no less than 7.00. On the same count and under the same terms, the figure for `Cc1ccc(NC(=O)c2ccnc(C3(C#N)CC3)c2)cc1-c1nccc(-c2ccnc(NC(=O)C3CC3)c2)n1` [Example 187] is no less than 7.00.

As to `Cc1ccc(NC(=O)c2ccnc(C(F)F)c2)cc1-c1ccnc(-c2ccnc(NC(=O)C3CC3)c2)n1` [Example 189], the pIC50 in the test with Miapaca-2 cells is 6.30 to 7.00. Same read-out and setting: the result for `Cc1ncc(NC(=O)c2ccnc(C(C)(C)C#N)c2)cc1-c1ccnc(-c2ccnc(NC(=O)C3CC3)c2)n1` [Example 193] reads no less than 7.00; that for `Cc1ccc(NC(=O)c2ccnc(C(C)(C)C#N)c2)cc1-c1cccc(-c2cc(NC(=O)C3(C)CC3)ncn2)c1` [Example 197], 6.30 to 7.00.

Turning to `Cc1cc(-c2cc(NC(=O)C3CC3)ncn2)cc(-c2cc(NC(=O)c3ccnc(C(C)(C)C#N)c3)ccc2C)c1` [Example 212], the pIC50 in the test with WM3629 cells is no less than 7.00. For `CNC(=O)c1cc(-c2cc(-c3cc(NC(=O)c4ccnc(C(C)(C)F)c4)ccc3C)ccn2)ccn1` [Example 214], the pIC50 in the test with WM3629 cells was no less than 7.00; in the test on Miapaca-2 cells, 6.30 to 7.00.

For `Cc1ncc(NC(=O)c2ccnc(C(C)(C)C#N)c2)cc1-c1cccc(-c2ccnc(NC(=O)C3CC3)c2)c1` [Example 222], the negative logarithm of the IC50 (pIC50) with WM3629 cells and in the test on Miapaca-2 cells was no less than 7.00 each time. With `Cc1ccc(NC(=O)c2ccnc(C(C)(C)C#N)c2)cc1-c1cccc(-c2ccnc(NC(=O)C3CC3)c2)c1` [Example 223], the pIC50 with Miapaca-2 cells is no less than 7.00. As to `Cc1ccc(NC(=O)c2ccnc(C(C)(C)C#N)c2)cc1-c1cncc(-c2cc(NC(=O)C3CC3)ncn2)c1` [Example 224], the pIC50 in the test with WM3629 cells and in the test with Miapaca-2 cells was no less than 7.00 each time. Turning to `COC(=O)Nc1cc(-c2cccc(-c3cc(NC(=O)c4ccnc(C(C)(C)C#N)c4)cnc3C)c2)ncn1` [Example 225], the pIC50 in the test with Miapaca-2 cells is no less than 7.00. Consider `Cc1ccc(NC(=O)c2ccnc(C3CC3)c2)cc1-c1ccnc(-c2ccnc(NC(=O)C3CC3)c2)n1` [Example 229], for which the pIC50 in the test on WM3629 cells is no less than 7.00.

Consider `Cc1ccc(NC(=O)c2ccnc(C(C)(C)C#N)c2)cc1-c1cnnc(-c2ccnc(NC(=O)C3CC3)c2)c1` [Example 230], for which the pIC50 with Miapaca-2 cells is no less than 7.00. Consider `CNC(=O)c1cc(-c2cncc(-c3cc(NC(=O)c4ccnc(C(C)(C)C#N)c4)ccc3C)c2)ncn1` [Example 235], for which the pIC50 in the test with WM3629 cells was no less than 7.00; with Miapaca-2 cells, 6.30 to 7.00.

As to `Cc1ccc(NC(=O)c2ccnc(C(C)(C)C#N)c2)cc1-c1ccnc(-c2ccnc(NC(=O)C3(C#N)CC3)c2)n1` [Example 241], the pIC50 in the test with Miapaca-2 cells was 6.30 to 7.00.

On to `Cc1ccc(NC(=O)c2ccnc(C(C)(C)C#N)c2)cc1-c1cc(-c2ccnc(NC(=O)C3CC3)c2)cnn1` [Example 245], for which the pIC50 in the test with WM3629 cells and in the test with Miapaca-2 cells was no less than 7.00 each time. Take `Cc1ncc(NC(=O)c2ccnc(C(C)(C)F)c2)cc1-c1cccc(-c2cc(NC(=O)C3CC3)ncn2)c1` [Example 249]: the negative-log IC50 (pIC50) in the test on WM3629 cells and in the test with Miapaca-2 cells was no less than 7.00 in each case. Regarding `Cc1ncc(NC(=O)c2ccnc(C(C)(C)C#N)c2)cc1-c1ccnc(-c2ccnc(NC(=O)C3CC3)c2)c1` [Example 251], the pIC50 in the test on Miapaca-2 cells is no less than 7.00. On to `Cc1ccc(NC(=O)c2ccnc(C(C)(C)C#N)c2)cc1-c1ccnc(-c2ccnc(NC(=O)C3CC3)c2)n1` [Example 257], for which the pIC50 with Miapaca-2 cells was no less than 7.00. `CNC(=O)c1cc(-c2cc(-c3cc(NC(=O)c4ccnc(C(C)(C)OC)c4)ccc3C)ccn2)ccn1` [Example 264]: the pIC50 in the test with WM3629 cells was no less than 7.00. Turning to `CNC(=O)c1cc(-c2cc(-c3cc(NC(=O)c4ccnc(C5(C#N)CC5)c4)ccc3C)ccn2)ccn1` [Example 265], the pIC50 in the test with Miapaca-2 cells was 6.30 to 7.00. Take `COC(C)(C)c1cc(C(=O)Nc2cnc(C)c(-c3cccc(-c4cc(NC(=O)C5CC5)ncn4)c3)c2)ccn1` [Example 274]: the pIC50 in the test on WM3629 cells and in the test with Miapaca-2 cells was no less than 7.00 in each case. With `Cc1ncc(NC(=O)c2cnn(C(C)(C)C)c2)cc1-c1cccc(-c2cc(NC(=O)C3CC3)ncn2)c1` [Example 279], the pIC50 in the test with Miapaca-2 cells is no less than 7.00.
